Laboratory results: PMC9747611 (Hypertension Research, 2022)
Entries after “also recorded” stand apart in the source; their conditions may differ.

Columns and labels:
Assay type in all cases: in vivo, human
plasma cortisol = experiment: Plasma and urine cortisol and 11-deoxycortisol (pharmacodynamics, with ACTH challenge in low-salt cohorts)
Experimental: Cohorts 1 and 2 also underwent an ACTH (Cortrosyn^TM) challenge at baseline (day −1), 1 h after the first dose of study drug on day 1, and 1 h after the final dose of study drug on day 10. This was done to increase aldosterone and cortisol levels to more thoroughly evaluate the specificity of baxdrostat for targeting aldosterone synthase. The ACTH challenge consisted of an intravenous injection of 0.25 mg Cortrosyn^TM administered over 2 min after an overnight fast.
Plasma and urine samples were analyzed to measure concentrations of baxdrostat and its primary metabolite (CIN-107-M), aldosterone and its precursors, cortisol and its precursor, and ACTH using a validated liquid chromatography tandem mass spectrometry method (LC-MS/MS). The quantifiable ranges for both baxdrostat and its metabolite CIN-107-M in plasma and urine were 0.05 to 50 ng/mL (low range) and 5 to 2500 ng/mL (high range), using baxdrostat-d5 and CIN-107-M-d3, respectively, as the internal standards. Plasma samples were extracted by protein precipitation with methanol, followed by analysis by LC-MS/MS with electrospray ionization in positive mode and multiple reaction monitoring. […]
Plasma PD measures included concentrations of aldosterone, 18-hydroxycorticosterone, corticosterone, 11-deoxycorticosterone, cortisol (free and total), 11-deoxycortisol, ACTH, sodium, chloride, and potassium. AUCs were calculated using a noncompartmental analysis and the linear trapezoidal/linear interpolation method. […]
Subjects who received placebo were pooled into 2 treatment groups: placebo with low-salt diet and placebo with normal-salt diet. Descriptive statistics were calculated for PK, PD, and safety measures. […] The results of the exploratory dose proportionality power model were assessed using the Smith criteria (0.9031, 1.0969) and the less stringent Hummel criteria (0.6990, 1.3010).

[1] = Safety: adverse events, ECG, vital signs
Experimental: (§1) Plasma PD measures included concentrations of aldosterone, 18-hydroxycorticosterone, corticosterone, 11-deoxycorticosterone, cortisol (free and total), 11-deoxycortisol, ACTH, sodium, chloride, and potassium. AUCs were calculated using a noncompartmental analysis and the linear trapezoidal/linear interpolation method. Urine PD measures included concentrations of aldosterone, cortisol (free and total), tetrahydroaldosterone, sodium, chloride, potassium, creatinine, and phosphorus. Other PD measures were seated, orthostatic, and positional changes in vital signs, as well as changes in body weight and BMI. Safety assessments involved adverse events, physical examinations, ECGs, orthostatic vital signs, and clinical laboratory evaluations.
Subjects who received placebo were pooled into 2 treatment groups: placebo with low-salt diet and placebo with normal-salt diet. Descriptive statistics were calculated for PK, PD, and safety measures. […] Data are presented as change from baseline in least squares mean (90% CI) AUC0-12h of plasma aldosterone on days 1 and 10. The results of the exploratory dose proportionality power model were assessed using the Smith criteria (0.9031, 1.0969) and the less stringent Hummel criteria (0.6990, 1.3010).

[2] = Plasma electrolytes and renal function (pharmacodynamics)
Experimental: as §1

[3] = also with ACTH challenge in low-salt diet groups
[4] = 0.5 mg once daily 10 days, normal-salt diet, n = 9
[5] = 1.5 mg once daily 10 days, normal-salt diet, n = 9
[6] = 2.5 mg once daily 10 days, low-salt diet, n = 9
[7] = 2.5 mg once daily 10 days, normal-salt diet, n = 6
[8] = 5.0 mg once daily 10 days, low-salt diet, n = 9
[9] = 0.5-5.0 mg once daily for 10 days

CCC(=O)N[C@@H]1CCCc2c(-c3ccc4c(c3)CCC(=O)N4C)cncc21 [baxdrostat]
effect on urine free cortisol (plasma cortisol; 24 h urine collections): no meaningful effect
effect on plasma 11-deoxycortisol (plasma cortisol; [3]): no meaningful effect
effect on plasma cortisol (total or free) (plasma cortisol; [3]): no meaningful impact; also recorded: no meaningful effect
Abdominal pain [1, 4]: 0 (0.0) n (%)
Anxiety [1, 4]: 0 (0.0) n (%)
Any AE [1, 4]: 1 (11.1) n (%)
Any TEAE [1, 4]: 1 (11.1) n (%)
Any TEAE leading to death [1, 4]: 0 (0.0) n (%)
Any TEAE leading to discontinuation [1, 4]: 0 (0.0) n (%)
Any drug-related treatment-emergent SAE [1, 4]: 0 (0.0) n (%)
Any treatment-emergent SAE [1, 4]: 0 (0.0) n (%)
Back pain [1, 4]: 0 (0.0) n (%)
Constipation [1, 4]: 0 (0.0) n (%)
Dizziness [1, 4]: 0 (0.0) n (%)
Dizziness postural [1, 4]: 0 (0.0) n (%)
Dry throat [1, 4]: 0 (0.0) n (%)
Dysphonia [1, 4]: 0 (0.0) n (%)
Eye irritation [1, 4]: 0 (0.0) n (%)
Headache [1, 4]: 1 (11.1) n (%)
Nausea [1, 4]: 0 (0.0) n (%)
Palpitations [1, 4]: 0 (0.0) n (%)
Presyncope [1, 4]: 0 (0.0) n (%)
Rhinitis [1, 4]: 0 (0.0) n (%)
Ventricular tachycardia [1, 4]: 0 (0.0) n (%)
Viral infection [1, 4]: 0 (0.0) n (%)
Abdominal pain [1, 5]: 0 (0.0) n (%)
Anxiety [1, 5]: 0 (0.0) n (%)
Any AE [1, 5]: 1 (11.1) n (%)
Any TEAE [1, 5]: 1 (11.1) n (%)
Any TEAE leading to death [1, 5]: 0 (0.0) n (%)
Any TEAE leading to discontinuation [1, 5]: 0 (0.0) n (%)
Any drug-related treatment-emergent SAE [1, 5]: 0 (0.0) n (%)
Any treatment-emergent SAE [1, 5]: 0 (0.0) n (%)
Back pain [1, 5]: 0 (0.0) n (%)
Constipation [1, 5]: 1 (11.1) n (%)
Dizziness [1, 5]: 0 (0.0) n (%)
Dizziness postural [1, 5]: 0 (0.0) n (%)
Dry throat [1, 5]: 0 (0.0) n (%)
Dysphonia [1, 5]: 0 (0.0) n (%)
Eye irritation [1, 5]: 0 (0.0) n (%)
Headache [1, 5]: 0 (0.0) n (%)
Nausea [1, 5]: 0 (0.0) n (%)
Palpitations [1, 5]: 0 (0.0) n (%)
Presyncope [1, 5]: 0 (0.0) n (%)
Rhinitis [1, 5]: 0 (0.0) n (%)
Ventricular tachycardia [1, 5]: 0 (0.0) n (%)
Viral infection [1, 5]: 0 (0.0) n (%)
Abdominal pain [1, 6]: 0 (0.0) n (%)
Anxiety [1, 6]: 0 (0.0) n (%)
Any AE [1, 6]: 3 (33.3) n (%)
Any TEAE [1, 6]: 3 (33.3) n (%)
Any TEAE leading to death [1, 6]: 0 (0.0) n (%)
Any TEAE leading to discontinuation [1, 6]: 0 (0.0) n (%)
Any drug-related treatment-emergent SAE [1, 6]: 0 (0.0) n (%)
Any treatment-emergent SAE [1, 6]: 0 (0.0) n (%)
Back pain [1, 6]: 0 (0.0) n (%)
Constipation [1, 6]: 0 (0.0) n (%)
Dizziness [1, 6]: 0 (0.0) n (%)
Dizziness postural [1, 6]: 1 (11.1) n (%)
Dry throat [1, 6]: 0 (0.0) n (%)
Dysphonia [1, 6]: 0 (0.0) n (%)
Eye irritation [1, 6]: 0 (0.0) n (%)
Headache [1, 6]: 1 (11.1) n (%)
Nausea [1, 6]: 0 (0.0) n (%)
Palpitations [1, 6]: 0 (0.0) n (%)
Presyncope [1, 6]: 1 (11.1) n (%)
Rhinitis [1, 6]: 0 (0.0) n (%)
Ventricular tachycardia [1, 6]: 0 (0.0) n (%)
Viral infection [1, 6]: 1 (11.1) n (%)
Abdominal pain [1, 7]: 0 (0.0) n (%)
Anxiety [1, 7]: 1 (16.7) n (%)
Any AE [1, 7]: 3 (50.0) n (%)
Any TEAE [1, 7]: 3 (50.0) n (%)
Any TEAE leading to death [1, 7]: 0 (0.0) n (%)
Any TEAE leading to discontinuation [1, 7]: 0 (0.0) n (%)
Any drug-related treatment-emergent SAE [1, 7]: 0 (0.0) n (%)
Any treatment-emergent SAE [1, 7]: 0 (0.0) n (%)
Back pain [1, 7]: 0 (0.0) n (%)
Constipation [1, 7]: 0 (0.0) n (%)
Dizziness [1, 7]: 1 (16.7) n (%)
Dizziness postural [1, 7]: 2 (33.3) n (%)
Dry throat [1, 7]: 1 (16.7) n (%)
Dysphonia [1, 7]: 0 (0.0) n (%)
Eye irritation [1, 7]: 1 (16.7) n (%)
Headache [1, 7]: 1 (16.7) n (%)
Nausea [1, 7]: 0 (0.0) n (%)
Palpitations [1, 7]: 0 (0.0) n (%)
Presyncope [1, 7]: 0 (0.0) n (%)
Rhinitis [1, 7]: 1 (16.7) n (%)
Ventricular tachycardia [1, 7]: 0 (0.0) n (%)
Viral infection [1, 7]: 0 (0.0) n (%)
Abdominal pain [1, 8]: 1 (11.1) n (%)
Anxiety [1, 8]: 0 (0.0) n (%)
Any AE [1, 8]: 3 (33.3) n (%)
Any TEAE [1, 8]: 3 (33.3) n (%)
Any TEAE leading to death [1, 8]: 0 (0.0) n (%)
Any TEAE leading to discontinuation [1, 8]: 0 (0.0) n (%)
Any drug-related treatment-emergent SAE [1, 8]: 0 (0.0) n (%)
Any treatment-emergent SAE [1, 8]: 0 (0.0) n (%)
Back pain [1, 8]: 1 (11.1) n (%)
Constipation [1, 8]: 0 (0.0) n (%)
Dizziness [1, 8]: 1 (11.1) n (%)
Dizziness postural [1, 8]: 0 (0.0) n (%)
Dry throat [1, 8]: 0 (0.0) n (%)
Dysphonia [1, 8]: 1 (11.1) n (%)
Eye irritation [1, 8]: 0 (0.0) n (%)
Headache [1, 8]: 1 (11.1) n (%)
Nausea [1, 8]: 0 (0.0) n (%)
Palpitations [1, 8]: 0 (0.0) n (%)
Presyncope [1, 8]: 0 (0.0) n (%)
Rhinitis [1, 8]: 0 (0.0) n (%)
Ventricular tachycardia [1, 8]: 0 (0.0) n (%)
Viral infection [1, 8]: 0 (0.0) n (%)
QT prolongation (electrocardiograms) [1, 9]: no QT prolongation
changes in seated heart rate or BP [1, 9]: no clinically significant changes
subjects with a TEAE considered related to the study drug ([1]; all baxdrostat groups pooled): 6 (14.3%)
severity of TEAEs ([1]; all subjects receiving baxdrostat): mild
change in plasma potassium levels [2, 9]: increases
change in plasma sodium levels [2, 9]: mild dose-dependent decreases
reduction in glomerular filtration rate ([2]; once daily for 10 days): < 15%
